The source made the active and inactive calls. The calls are words filed in the database; no cut-off is given here.
Assays:
[1] = Inhibition of photosystem 2 in spinach thylakoid membranes assessed as oxygen evolution; type: cell membranes, Spinacia oleracea; settings: read-out: I50
[2] = system: Lactuca sativa; assay: Phytotoxicity against lettuce seedlings assessed as inhibition of seed germination at 0.1 mM after 4 days; type: functional, organism-based
[3] = system: Spinacia oleracea; assay: Reduction in light-induced chlorophyll fluorescence half-life in spinach thylakoids membrane at 0.3 to 1 uM; type: functional, cell membranes
[4] = system: Lactuca sativa; assay: Phytotoxicity against lettuce seedlings assessed as inhibition of seed germination at >0.3 mM after 4 days; type: functional, organism-based

| SMILES | IC50 [1] [µM] | Activity [2] | Activity [3] | Activity [4] |
| --- | --- | --- | --- | --- |
| C=CC/C=C\C/C=C\CCCCCCCC1=C(OC)C(=O)C=C(OC)C1=O | 0.28 | inactive | Active | Active |
| C=CC/C=C\C/C=C\CCCCCCCC1=C(O)C(=O)C=C(OCC)C1=O | 1.07 | inactive | Active | Active |
| CCNc1nc(Cl)nc(NC(C)C)n1 [ATRAZINE] | 0.93 | inactive | Active | Active |
| C=CC/C=C\C/C=C\CCCCCCCC1=C(O)C(=O)C=C(OC)C1=O [SORGOLEONE] | 0.1 | inactive | Active | Active |

From ChEMBL document CHEMBL1150922, “A new photosystem II electron transfer inhibitor from Sorghum bicolor” (J Nat Prod, 1998)
